The values that follow come from US11977067B2 (Radius Health, Inc., priority 2017, dated 2024).

pEC50: −log10 of the molar value. “And” between values parts separate entries of the source, which are not always exact repeats. Equal values may be shown once.

In data set [1] the target is T1, PTH receptors (Homo sapiens, UniProt Q03431).
T1 sequence (Q03431 27-593): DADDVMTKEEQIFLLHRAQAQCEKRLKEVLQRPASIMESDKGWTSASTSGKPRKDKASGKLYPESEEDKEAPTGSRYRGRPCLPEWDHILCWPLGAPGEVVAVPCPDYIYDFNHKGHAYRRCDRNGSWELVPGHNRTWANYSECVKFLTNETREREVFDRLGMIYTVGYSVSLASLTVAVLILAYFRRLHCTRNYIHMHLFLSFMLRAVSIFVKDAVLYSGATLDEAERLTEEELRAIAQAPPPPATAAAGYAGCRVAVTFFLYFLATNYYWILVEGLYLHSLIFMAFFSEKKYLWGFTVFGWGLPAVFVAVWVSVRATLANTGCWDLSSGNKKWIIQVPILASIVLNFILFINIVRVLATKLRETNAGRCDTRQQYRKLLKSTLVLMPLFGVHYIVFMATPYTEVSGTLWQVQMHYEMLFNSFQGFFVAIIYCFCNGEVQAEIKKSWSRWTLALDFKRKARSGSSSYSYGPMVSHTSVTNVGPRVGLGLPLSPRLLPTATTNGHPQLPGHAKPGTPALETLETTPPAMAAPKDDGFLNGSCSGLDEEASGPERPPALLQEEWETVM
In words: qualified cell base potency assay for functional PTH activity (cAMP production). The data set is classed as cell-based.

Data set [2] can be described thus: (beta-Asp10) abaloparatide levels in formulated registration batches at different storage conditions. In kind it is physicochemical.
A short description of data set [3]: rate constants and Arrhenius analysis of (beta-Asp10) abaloparatide formation. The data set is classed as physicochemical. As for the experimental part: Rate constants at each temperature are tabulated in the top row of Table 18.
An Arrhenius plot was constructed (FIG. 8) by plotting the natural logarithm of the rate constants (k) for three storage temperatures, against the reciprocals of those temperatures in Kelvin. […] The activation energy, Ea, derived with high accuracy from the slope of a linear regression best fit of the Arrhenius plot is Ea=91,670 J/mol. […] For example, the observed rate constant at 5° C., Kobs=0.0655%/month agrees well with the predicted value, Kcalc=0.0644%/month, with only a 0.0011% absolute difference and a 1.7% relative difference.
The amount of b-Asp10 in the API must be determined with rigor and set accordingly to achieve the desired stability profile after pre-specified storage conditions. Previously, this could not be done as the methods used were insufficient for its identification and quantification. Therefore, not only has a new degradant been discovered but the methods described herein have allowed the formation rate equation to be determined and thus allow for setting its specification in the API when coupled with a desired storage stability profile. […] Similarly, the API, once formulated into cartridges is tested for purity including evaluation for (b-Asp10) right after the cartridge is formulated. This is also an important evaluation point for (b-Asp10) because the formulation itself requires time to complete mixing and filling prior to refrigeration.

As to `CC[C@H](C)[C@H](NC(=O)[C@H](CO)NC(=O)[C@H](CCCCN)NC(=O)CNC(=O)[C@H](CCCCN)NC(=O)C[C@H](NC(=O)[C@H](Cc1c[nH]cn1)NC(=O)[C@H](CC(C)C)NC(=O)[C@H](CC(C)C)NC(=O)[C@H](CCC(N)=O)NC(=O)[C@H](Cc1c[nH]cn1)NC(=O)[C@H](CCC(=O)O)NC(=O)[C@H](CO)NC(=O)[C@@H](NC(=O)[C@H](C)N)C(C)C)C(=O)O)C(=O)N[C@@H](CCC(N)=O)C(=O)N[C@@H](CC(=O)O)C(=O)N[C@@H](CC(C)C)C(=O)N[C@@H](CCCNC(=N)N)C(=O)N[C@@H](CCCNC(=N)N)C(=O)N[C@@H](CCCNC(=N)N)C(=O)N[C@@H](CCC(=O)O)C(=O)N[C@@H](CC(C)C)C(=O)N[C@@H](CC(C)C)C(=O)N[C@@H](CCC(=O)O)C(=O)N[C@@H](CCCCN)C(=O)N[C@@H](CC(C)C)C(=O)N[C@@H](CC(C)C)C(=O)NC(C)(C)C(=O)N[C@@H](CCCCN)C(=O)N[C@@H](CC(C)C)C(=O)N[C@@H](Cc1c[nH]cn1)C(=O)N[C@H](C(=O)N[C@@H](C)C(N)=O)[C@@H](C)O` [(beta-Asp10) abaloparatide, [b-Asp^10, Glu^22,25, Leu^23,28,31, Aib^29, Lys^26,30]hPTHrP(1-34)NH2)], the “agonist on PTH receptors” value in data set [1] is listed as “active per se as an agonist”. Besides, the pEC50 in data set [1] (production of cAMP as a measure of bioactivity) was 9.08. For the same molecule, the “(beta-Asp10) abaloparatide level (mean) in formulated samples” value (shortened to “(beta-Asp10) abaloparatide level (mean)”) in data set [2] (5° C. long term storage condition, 0 M) amounted to 0.3%; in data set [2] (5° C. long term storage condition, 3 M) it was 0.5%; in data set [2] (5° C. long term storage condition, 6 M), 0.76%; in data set [2] (5° C. long term storage condition, 9 M), 0.96%; in data set [2] (5° C. long term storage condition, 12 M), 1.03%; in data set [2] (5° C. long term storage condition, 18 M), 1.66%. Moreover, the “(beta-Asp10) abaloparatide level (mean)” value in data set [2] (5° C. long term storage condition, 24 M) was 1.93%; in data set [2] (25° C. accelerated condition, 0 M), 0.3%; in data set [2] (25° C. accelerated condition, 1 M), 1.26%; in data set [2] (25° C. accelerated condition, 3 M), 3.26%; in data set [2] (25° C. accelerated condition, 6 M) it was 6.3%; in data set [2] (25° C. accelerated condition, 9 M), 9.43%. In addition, the “(beta-Asp10) abaloparatide level (mean)” value in data set [2] (25° C. accelerated condition, 12 M) was found to be 11.96%; in data set [2] (25° C. accelerated condition, 18 M), 16.73%; in data set [2] (25° C. accelerated condition, 24 M), 20.73%; in data set [2] (40° C. stress condition, 0 M), 0.3%; in data set [2] (40° C. stress condition, 1 M), 7.10%; in data set [2] (40° C. stress condition, 3 M), 18.76%. Moreover, in data set [2] (40° C. stress condition, 6 M), the “(beta-Asp10) abaloparatide level (mean)” value was determined as 32.9%. In addition, the “Difference (%) between kobs and Kcalc (relative difference)” value in data set [3] (5° C.) was 2.3%. Also, the “Kcalc (%/month), rate constant calculated from activation energy” value in data set [3] (5° C.) is 0.0644 %/month and 0.0674 %/month; in data set [3] (25° C.), 0.938 %/month; in data set [3] (40° C.) it was 5.19 %/month. Also, the “absolute difference between Kobs and Kcalc” value in data set [3] (5° C.) is reported as 0.0011%. In addition, the “kobs (%/month), observed rate constant for formation of (beta-Asp10) abaloparatide” value was 0.0655 %/month and 0.0690 %/month in data set [3] (5° C.); 0.993 %/month in data set [3] (25° C.); 5.38 %/month in data set [3] (40° C.). Further, the entries for the “Difference (%) between kobs and Kcalc” value in data set [3] (25° C.) and in data set [3] (40° C.) were −5.6% and 3.5%, respectively. The “activation energy, Ea” value in data set [3] (slope of linear regression of Arrhenius plot, 5° C. to 40° C.) was 91,670 J/mol.
`CC[C@H](C)[C@H](NC(=O)[C@H](CO)NC(=O)[C@H](CCCCN)NC(=O)CNC(=O)[C@H](CCCCN)NC(=O)[C@H](CC(=O)O)NC(=O)[C@H](Cc1c[nH]cn1)NC(=O)[C@H](CC(C)C)NC(=O)[C@H](CC(C)C)NC(=O)[C@H](CCC(N)=O)NC(=O)[C@H](Cc1c[nH]cn1)NC(=O)[C@H](CCC(=O)O)NC(=O)[C@H](CO)NC(=O)[C@@H](NC(=O)[C@H](C)N)C(C)C)C(=O)N[C@@H](CCC(N)=O)C(=O)N[C@@H](CC(=O)O)C(=O)N[C@@H](CC(C)C)C(=O)N[C@@H](CCCNC(=N)N)C(=O)N[C@@H](CCCNC(=N)N)C(=O)N[C@@H](CCCNC(=N)N)C(=O)N[C@@H](CCC(=O)O)C(=O)N[C@@H](CC(C)C)C(=O)N[C@@H](CC(C)C)C(=O)N[C@@H](CCC(=O)O)C(=O)N[C@@H](CCCCN)C(=O)N[C@@H](CC(C)C)C(=O)N[C@@H](CC(C)C)C(=O)NC(C)(C)C(=O)N[C@@H](CCCCN)C(=O)N[C@@H](CC(C)C)C(=O)N[C@@H](Cc1c[nH]cn1)C(=O)N[C@H](C(=O)N[C@@H](C)C(N)=O)[C@@H](C)O` [abaloparatide, [Glu^22,25, Leu^23,28,31, Aib^29, Lys^26,30]hPTHrP(1-34)NH2)]: in data set [3] (formulated drug product), the “kinetic order of isomerization of abaloparatide to (beta-Asp10) isomer” value was “zero order kinetics”.
